The source of these data is ChEMBL document CHEMBL1151866, “Design and synthesis of novel delta opioid receptor agonists and their pharmacologies” (Bioorg Med Chem Lett, 2009).

In one assay the target is Mu-type opioid receptor (Rattus norvegicus, UniProt P33535). Nature of the assay: Displacement of [3H]DAMGO from mu opioid receptor in rat cerebellum membrane. Type of assay: cell membranes. On the technique in general: Displacement assays read how much labelled ligand stays bound in the presence of the test substance.
Assay [1] has as its target Delta-type opioid receptor (Rattus norvegicus, UniProt P33533). Nature of the assay: Displacement of [3H]DADLE from delta opioid receptor in rat cerebellum membrane. It is filed as cell membranes.
In assay [2] the target is Kappa-type opioid receptor (Cavia porcellus, UniProt P41144). Description: Displacement of [3H]U-69593 from kappa opioid receptor in guinea pig cerebellum. It is filed as tissue-based.
The next assay is filed under the species Rattus norvegicus. Description: Selectivity ratio of Ki for mu opioid receptor in rat cerebellum membrane to Ki for delta opioid receptor in rat cerebellum membrane. Type of assay: cell membranes.
The nature of assay [3]: Selectivity ratio of Ki for kappa opioid receptor in guinea pig cerebellum to Ki for delta opioid receptor in rat cerebellum membrane. It is filed as cell membranes.
Assay [4] concerns the target T1, Delta-type opioid receptor (Homo sapiens, UniProt P41143). Description: Ratio of EC50 for drug to EC50 for TAN-67 against human recombinant delta opioid receptor.
Assay [5] addresses T1, Delta-type opioid receptor. Description: Agonist activity at human recombinant delta opioid receptor expressed in HEK293 cells by [35S]GTPgammaS binding assay. Type of assay: functional, cell-based.
In a further assay the test system is Mus musculus. Nature of the assay: Analgesic activity against acetic acid-induced writhing in sc dosed mouse. It is filed as functional.
The target of assay [6] is T1, Delta-type opioid receptor. Nature of the assay: Agonist activity at human recombinant delta opioid receptor expressed in CHO cells by [35S]GTPgammaS binding assay. It is filed as functional, cell-based. For orientation: Binding of GTPγS marks nucleotide exchange on a G protein.

Kappa-type opioid receptor, sequence (P41144 whole entry): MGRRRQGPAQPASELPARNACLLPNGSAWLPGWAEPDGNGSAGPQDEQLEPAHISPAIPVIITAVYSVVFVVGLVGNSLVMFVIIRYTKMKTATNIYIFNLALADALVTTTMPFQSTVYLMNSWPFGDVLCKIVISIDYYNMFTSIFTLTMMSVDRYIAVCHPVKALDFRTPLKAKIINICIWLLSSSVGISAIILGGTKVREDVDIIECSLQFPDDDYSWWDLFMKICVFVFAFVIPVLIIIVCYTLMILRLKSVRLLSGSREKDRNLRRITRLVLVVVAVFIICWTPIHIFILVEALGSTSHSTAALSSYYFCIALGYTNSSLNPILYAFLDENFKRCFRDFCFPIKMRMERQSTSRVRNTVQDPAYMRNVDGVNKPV
Delta-type opioid receptor (Rattus norvegicus, UniProt P33533), sequence (P33533 whole entry): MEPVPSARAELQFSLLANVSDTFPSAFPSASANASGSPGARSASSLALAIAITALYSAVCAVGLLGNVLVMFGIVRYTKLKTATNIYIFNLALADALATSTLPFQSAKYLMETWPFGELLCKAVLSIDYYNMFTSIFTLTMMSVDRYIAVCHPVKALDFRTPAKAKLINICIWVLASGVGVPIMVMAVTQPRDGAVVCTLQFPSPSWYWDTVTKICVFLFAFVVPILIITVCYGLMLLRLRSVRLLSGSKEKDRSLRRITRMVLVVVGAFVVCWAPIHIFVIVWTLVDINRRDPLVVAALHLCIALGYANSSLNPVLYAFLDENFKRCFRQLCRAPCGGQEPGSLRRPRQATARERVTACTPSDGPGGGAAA
Mu-type opioid receptor, sequence (P33535 whole entry): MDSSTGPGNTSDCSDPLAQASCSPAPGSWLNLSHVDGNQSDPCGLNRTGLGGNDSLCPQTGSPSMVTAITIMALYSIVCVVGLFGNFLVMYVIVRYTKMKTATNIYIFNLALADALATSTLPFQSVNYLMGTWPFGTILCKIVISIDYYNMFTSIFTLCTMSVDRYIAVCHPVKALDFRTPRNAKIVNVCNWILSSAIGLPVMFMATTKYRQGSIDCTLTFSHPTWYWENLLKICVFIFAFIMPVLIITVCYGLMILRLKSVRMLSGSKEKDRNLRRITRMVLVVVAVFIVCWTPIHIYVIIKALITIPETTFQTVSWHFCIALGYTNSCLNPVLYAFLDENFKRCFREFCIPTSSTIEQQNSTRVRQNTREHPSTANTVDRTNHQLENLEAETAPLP
T1 sequence (P41143 whole entry): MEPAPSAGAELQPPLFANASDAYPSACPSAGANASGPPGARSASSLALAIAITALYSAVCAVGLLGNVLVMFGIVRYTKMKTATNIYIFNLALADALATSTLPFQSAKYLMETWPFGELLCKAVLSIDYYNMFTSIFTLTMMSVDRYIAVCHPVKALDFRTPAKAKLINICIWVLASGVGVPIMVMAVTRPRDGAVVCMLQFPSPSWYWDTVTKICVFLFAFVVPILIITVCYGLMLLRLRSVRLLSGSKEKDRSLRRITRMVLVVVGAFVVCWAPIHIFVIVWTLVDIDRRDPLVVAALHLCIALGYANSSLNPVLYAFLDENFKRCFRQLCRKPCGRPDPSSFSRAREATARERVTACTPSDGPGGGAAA

The Ki is a measure of affinity in units of concentration, obtained from inhibition or displacement. High values mean lower affinity, low ones higher affinity. What is called EC50 is the midpoint of the concentration-response curve. Turning to `CN1CC[C@]23Cc4nc5ccccc5cc4C[C@H]2[C@H]1Cc1ccc(O)cc13`, the Ki was 11.5 nM at Mu-type opioid receptor, 0.14 nM in assay [1] and 10.2 nM in assay [2]. Besides, the Ratio in the assay filed under Rattus norvegicus was determined as 82.4; in [3], 72.9. For the same compound, the Ratio EC50 in [4] was found to be 10. Moreover, the EC50 in assay [5] turned out to be 0.047 nM.
Turning to `Oc1ccc2c(c1)[C@]13CCN(CC4CC4)[C@H](C2)[C@@H]1Cc1cc2ccccc2nc1C3`, the Ki on Mu-type opioid receptor is 0.77 nM; in assay [1], 0.19 nM; in assay [2], 0.36 nM. In addition, the Ratio in the assay filed under Rattus norvegicus was found to be 4.1; in [3], 1.9. The Ratio EC50 in [4] stood at 10. Further, the EC50 in assay [5] turned out to be 0.018 nM.
For orientation: ED50 means the dose at which the effect has come halfway, by size or by number of responders. Read a low ED50 as greater potency. The compound `CN1CC[C@]2(c3cccc(O)c3)Cc3nc4ccccc4cc3C[C@H]2C1` came in with an ED50 in the assay with Mus musculus of 31.4 mg/kg. Further, the Ki stood at 284 nM at Mu-type opioid receptor, 1.44 nM in assay [1] and 732 nM in [2]. Further, the Ratio in the assay listed under Rattus norvegicus is 197; in assay [3], 509. Also, the EC50 in assay [5] stood at 0.7 nM; in [6] it was 1.4 nM.
`CC(C)CN1CC[C@]23Cc4nc5ccccc5cc4C[C@H]2[C@H]1Cc1ccc(O)cc13`: the Ki came to 23.6 nM at Mu-type opioid receptor, 0.19 nM in assay [1] and 4.41 nM in assay [2]. The Ratio is 124 in the assay listed under Rattus norvegicus and 23.2 in assay [3]. The Ratio EC50 in assay [4] is 10. Moreover, the EC50 in assay [5] came to 0.06 nM.
